Values joined by “and” are separate entries in the source; they are usually repeats but may differ in a detail not shown here. Equal entries are not always repeated. Inconclusive results and toxic doses are left out. Cut-off read from the data, not from the text of the source: active = T/C of 150% or more; inactive = T/C below 125%.
Test system: L1210 leukemia ip in BDF1 mice, survival T/C
Assay: NCI In Vivo Anticancer Drug Screen. Data for tumor model L1210 Leukemia (intraperitoneal) in B6D2F1 (BDF1) mice
Conditions: endpoint: mean survival time, higher = longer survival
How it was run: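 Read-out is survival time, reported as the treated-group measurement over the vehicle-control measurement.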

[1] = dose: 50.0 mg/kg/injection, schedule: Q01DX009 (ip), vehicle: saline with Tween-80
[2] = dose: 100.0 mg/kg/injection, schedule: Q01DX009 (ip), vehicle: saline with Tween-80
[3] = dose: 200.0 mg/kg/injection, schedule: Q01DX009 (ip), vehicle: saline with Tween-80
[4] = dose: 100.0 mg/kg/injection, schedule: Q01DX001 (ip), vehicle: saline
[5] = dose: 200.0 mg/kg/injection, schedule: Q01DX001 (ip), vehicle: saline
[6] = dose: 400.0 mg/kg/injection, schedule: Q01DX001 (ip), vehicle: saline
[7] = dose: 100.0 mg/kg/injection, schedule: Q01DX009 (ip), vehicle: Klucel (hydroxypropylcellulose) (HPC)
[8] = dose: 100.0 mg/kg/injection, schedule: Q04DX003 (ip), vehicle: Klucel (hydroxypropylcellulose) (HPC)
[9] = dose: 200.0 mg/kg/injection, schedule: Q01DX009 (ip), vehicle: Klucel (hydroxypropylcellulose) (HPC)
[10] = dose: 200.0 mg/kg/injection, schedule: Q04DX003 (ip), vehicle: Klucel (hydroxypropylcellulose) (HPC)
[11] = dose: 400.0 mg/kg/injection, schedule: Q01DX009 (ip), vehicle: Klucel (hydroxypropylcellulose) (HPC)
[12] = dose: 400.0 mg/kg/injection, schedule: Q04DX003 (ip), vehicle: Klucel (hydroxypropylcellulose) (HPC)
[13] = dose: 100.0 mg/kg/injection, schedule: Q04DX003 (ip), vehicle: saline
[14] = dose: 200.0 mg/kg/injection, schedule: Q04DX003 (ip), vehicle: saline
[15] = dose: 400.0 mg/kg/injection, schedule: Q04DX003 (ip), vehicle: saline
[16] = dose: 100.0 mg/kg/injection, schedule: Q04DX003 (ip), vehicle: saline with Tween-80
[17] = dose: 200.0 mg/kg/injection, schedule: Q04DX003 (ip), vehicle: saline with Tween-80
[18] = dose: 400.0 mg/kg/injection, schedule: Q04DX003 (ip), vehicle: saline with Tween-80

Measured: T/C

Cc1ccc(S(=O)(=O)Oc2c(Cl)c(Cl)c(Cl)c(Cl)c2Cl)cc1
inactive: dose: 100.0 mg/kg/injection, schedule: Q01DX001 (ip), vehicle: other 94 % of control | dose: 100.0 mg/kg/injection, schedule: Q01DX009 (ip), vehicle: other 92 % of control | dose: 100.0 mg/kg/injection, schedule: Q04DX003 (ip), vehicle: other 92 % of control | dose: 200.0 mg/kg/injection, schedule: Q01DX001 (ip), vehicle: other 102 % of control | dose: 200.0 mg/kg/injection, schedule: Q01DX009 (ip), vehicle: other 86 % of control | dose: 200.0 mg/kg/injection, schedule: Q04DX003 (ip), vehicle: other 93 % of control | dose: 400.0 mg/kg/injection, schedule: Q01DX001 (ip), vehicle: other 88 % of control | dose: 400.0 mg/kg/injection, schedule: Q04DX003 (ip), vehicle: other 90 % of control

c1ccc(N2CCN(c3ccccn3)CC2)nc1
inactive: [1] 92 % of control | [2] 99 % of control | [3] 89 % of control

O=C(O)c1[nH]c2c(=O)[nH]c(=O)[nH]c2c1Br
inactive: [4] 102 % of control | [5] 100 % of control | [6] 100 % of control

CC(C)(C)C(=O)CC(=O)C(C)(C)C.CC(C)(C)C(=O)CC(=O)C(C)(C)C.CC(C)(C)C(=O)CC(=O)C(C)(C)C.[Al]
inactive: [7] 91 % of control | [8] 91 % of control | [9] 94 % of control | [10] 94 % of control | [11] 97 % of control | [12] 95 % of control

COC(=O)CCC(OC(C)=O)C(=O)c1ccccc1 (configuration not stated)
inactive: [1] 91 % of control | [2] 94 % of control | [3] 88 % of control

O=[N+]([O-])c1ccc(S(=O)(=O)O/N=C2\c3ccccc3-c3ccc([N+](=O)[O-])cc32)cc1
inactive: [8] 97 % of control | [9] 109 % of control | [10] 98 % of control | [11] 109 % of control | [12] 95 % of control
active: [7] 161 % of control

COc1ccc(-c2n[nH]c(C(F)(F)F)c2N=NN(C)C)cc1OC
inactive: dose: 75.0 mg/kg/injection, schedule: Q01DX001 (ip), vehicle: other 93 % of control | dose: 150.0 mg/kg/injection, schedule: Q01DX001 (ip), vehicle: other 94 % of control | dose: 300.0 mg/kg/injection, schedule: Q01DX001 (ip), vehicle: other 91 % of control

COC(=O)[C@H]1[C@H]2C[C@@H]3c4[nH]c5cc(OC)ccc5c4CCN3C[C@H]2C[C@@H](OC(=O)c2cccc(N(C)C)c2)[C@@H]1OC
inactive: dose: 0.78 mg/kg/injection, schedule: Q01DX009 (ip), vehicle: Klucel (hydroxypropylcellulose) (HPC) 102 % of control | dose: 0.78 mg/kg/injection, schedule: Q04DX003 (ip), vehicle: Klucel (hydroxypropylcellulose) (HPC) 94 % of control | dose: 1.56 mg/kg/injection, schedule: Q01DX009 (ip), vehicle: Klucel (hydroxypropylcellulose) (HPC) 102 % of control | dose: 1.56 mg/kg/injection, schedule: Q04DX003 (ip), vehicle: Klucel (hydroxypropylcellulose) (HPC) 107 % of control | dose: 3.12 mg/kg/injection, schedule: Q01DX009 (ip), vehicle: Klucel (hydroxypropylcellulose) (HPC) 96 % of control | dose: 3.12 mg/kg/injection, schedule: Q04DX003 (ip), vehicle: Klucel (hydroxypropylcellulose) (HPC) 104 % of control | dose: 6.25 mg/kg/injection, schedule: Q01DX009 (ip), vehicle: Klucel (hydroxypropylcellulose) (HPC) 93 % of control | dose: 6.25 mg/kg/injection, schedule: Q04DX003 (ip), vehicle: Klucel (hydroxypropylcellulose) (HPC) 104 % of control | dose: 12.5 mg/kg/injection, schedule: Q04DX003 (ip), vehicle: Klucel (hydroxypropylcellulose) (HPC) 100 % of control

CCOC(CCCN=CN(C)C)OCC
inactive: [13] 102 % of control | [14] 100 % of control | [15] 102 % of control

COc1cccc(CNC(C)(C)CO)c1
inactive: dose: 75.0 mg/kg/injection, schedule: Q01DX001 (ip), vehicle: saline 95 % of control | dose: 150.0 mg/kg/injection, schedule: Q01DX001 (ip), vehicle: saline 102 % of control | dose: 300.0 mg/kg/injection, schedule: Q01DX001 (ip), vehicle: saline 104 % of control

CSc1ncc2c(Cl)nn(C)c2n1
inactive: dose: 37.5 mg/kg/injection, schedule: Q01DX001 (ip), vehicle: Klucel (hydroxypropylcellulose) (HPC) 94 % of control | dose: 75.0 mg/kg/injection, schedule: Q01DX001 (ip), vehicle: Klucel (hydroxypropylcellulose) (HPC) 92 % of control | dose: 150.0 mg/kg/injection, schedule: Q01DX001 (ip), vehicle: Klucel (hydroxypropylcellulose) (HPC) 90 % of control

O=C(c1ccccc1)C1C(c2ccccc2)N1C1CCCCC1 (configuration not stated)
inactive: dose: 50.0 mg/kg/injection, schedule: Q01DX009 (ip), vehicle: Klucel (hydroxypropylcellulose) (HPC) 95 % of control | [7] 97 % of control and 103 % of control | [8] 96 % of control and 100 % of control | [9] 95 % of control and 89 % of control | [10] 93 % of control and 88 % of control | [11] 90 % of control and 91 % of control | [12] 95 % of control and 100 % of control

CC(C)CCC(C)c1ccncc1 (configuration not stated)
inactive: [4] 103 % of control | [5] 97 % of control | [6] 100 % of control

O=C(OC1CC=CCC1)c1ccc([N+](=O)[O-])cc1 (configuration not stated)
inactive: dose: 100.0 mg/kg/injection, schedule: Q01DX001 (ip), vehicle: Klucel (hydroxypropylcellulose) (HPC) 86 % of control | dose: 200.0 mg/kg/injection, schedule: Q01DX001 (ip), vehicle: Klucel (hydroxypropylcellulose) (HPC) 98 % of control | dose: 400.0 mg/kg/injection, schedule: Q01DX001 (ip), vehicle: Klucel (hydroxypropylcellulose) (HPC) 96 % of control

O=c1onc(-c2ccccc2)c2ccccc12
inactive: dose: 12.5 mg/kg/injection, schedule: Q04DX002 (ip), vehicle: saline with Tween-80 106 % of control | dose: 25.0 mg/kg/injection, schedule: Q04DX002 (ip), vehicle: saline with Tween-80 106 % of control | dose: 50.0 mg/kg/injection, schedule: Q04DX002 (ip), vehicle: saline with Tween-80 103 % of control

NC(=O)Cn1cnc2c(N)ncnc21
inactive: [16] 95 % of control | [17] 95 % of control | [18] 101 % of control

CC1(C)CN(N=O)C(C)(C)CN1N=O
inactive: dose: 100.0 mg/kg/injection, schedule: Q04DX003 (ip), vehicle: acetone 99 % of control | dose: 200.0 mg/kg/injection, schedule: Q04DX003 (ip), vehicle: acetone 103 % of control | dose: 400.0 mg/kg/injection, schedule: Q04DX003 (ip), vehicle: acetone 96 % of control

CC(C)C(=O)[O][Sn]([CH2]c1ccccc1)([CH2]c1ccccc1)[CH2]c1ccccc1
inactive: [16] 88 % of control

O=C1CC(=O)NC(=O)N1
inactive: [16] 91 % of control | [17] 93 % of control | [18] 91 % of control

CCCCNC(c1ccccc1)=[N+]1C(C)CCCC1C (configuration not stated)
inactive: dose: 3.0 mg/kg/injection, schedule: Q04DX002 (ip), vehicle: saline 108 % of control | dose: 6.0 mg/kg/injection, schedule: Q04DX002 (ip), vehicle: saline 94 % of control | dose: 12.0 mg/kg/injection, schedule: Q04DX002 (ip), vehicle: saline 87 % of control | dose: 12.5 mg/kg/injection, schedule: Q04DX002 (ip), vehicle: saline 107 % of control

C1=CC2(OCCO2)C2CC=CC3(OCCO3)C2C1 (configuration not stated)
inactive: dose: 100.0 mg/kg/injection, schedule: Q01DX009 (ip), vehicle: saline 113 % of control | [13] 109 % of control | [14] 98 % of control | [15] 109 % of control

CCOc1ccc(NC(=S)NC2CCCCC2)cc1
inactive: [7] 106 % of control | [9] 95 % of control | [11] 96 % of control

O=[N+]([O-])c1ccc(S)c(Cl)c1
inactive: dose: 12.5 mg/kg/injection, schedule: Q01DX009 (ip), vehicle: Klucel (hydroxypropylcellulose) (HPC) 104 % of control | dose: 25.0 mg/kg/injection, schedule: Q01DX009 (ip), vehicle: Klucel (hydroxypropylcellulose) (HPC) 104 % of control

Nc1nc(N)c(-c2cccc(Cl)c2)c(CBr)n1
inactive: dose: 12.5 mg/kg/injection, schedule: Q01DX009 (ip), vehicle: saline 101 % of control | dose: 25.0 mg/kg/injection, schedule: Q01DX009 (ip), vehicle: saline 102 % of control | dose: 50.0 mg/kg/injection, schedule: Q01DX009 (ip), vehicle: saline 104 % of control

From PubChem BioAssay AID248 (DTP/NCI, 2004)
